Columns and labels:
[1] = test system: ob/ob mice; assay: Blood glucose level of normally fed ob/ob obese diabetic mice, daily treatment; type: in vivo; settings: 4.5-mg/kg s.c. once daily
Text: Adult female leptin-deficient ob/ob obese diabetic inbred specified pathogen free (SPF) hygienic category mice from Charles River VRF1 were used for these experiments. The mice weighed 32-36-g at arrival. The ob/ob obese mouse is an extensively used animal model for the study of non-insulin-dependent-diabetes mellitus (NIDDM). The mutation was propagated in the C57BL/6J (BL/6) inbred strain. Homozygous obese (ob/ob) animals developed hyperglycemia due to insulin resistance, hyperinsulinemia (to compensate for reduced insulin action), and obesity. In these animals gluconeogenesis is enhanced despite their hyperinsulinemic state. The animals were kept in macrolon cages at 22-24° C. and 50-60% humidity, with lighting regimen of 12/12 h light dark. They had free access to tap water and were fed a sterilized standard diet (Charles River VRF1, autoclavable). The animals were cared for according to the “Guiding Principles for the Care and Use for Animals” based upon the Helsinki declaration. The ob/ob mice gained weight rapidly and developed a marked obesity by 5-6 weeks of age. […] When arrived they were 5 weeks old (when the experiment was performed with CCcompound1) or 4.5 weeks old (when the experiment was performed with CCcompound3 and CCcompound19). The treatments started 8 days later in the experiment performed with CCcompound1 and 10 days later in the experiment performed with CCcompound3 and CCcompound19. Experimental groups selected from ob/ob mice were injected subcutaneously (s.c.) at regular intervals once daily for 14 days with CCcompound1 or an analog (CCcompound3 or CCcompound19) each at the dose of 4.5-mg per kg. Control groups were also selected from ob/ob mice that remained untreated during the entire length of the experiment. In the first experiment, for which the data is presented in TABLE 11, blood samples were taken either 45 min or 6 hours after treatments with CCcompound1. In the second experiment, for which the data is presented in TABLE 12, blood samples were taken 45 min after treatments with the analogs of CCcompound1. Blood glucose was determined with the Fast Glucose C test. Both the untreated and CC compound-treated groups included 5 animals. The data are the mean±std. dev.

[2] = test system: PC-3 human tumors; assay: PC-3 tumor/cachexia model: tumor weight and body weight; type: in vivo, mice
Experimental: The experimental PC-3 human tumors were developed in a homozygous line of C.B.-171 cr scid/scid adult female mice that were kept at specified pathogen free (SPF) hygienic level. Treatments with CCcompound1 (4.5 mg/kg) were started on day 12 after tumor implantation and conducted for 5+5 days with 2 treatment-free days inserted between the 2 series of treatments. A control group (10 mice) received no treatment, while another group (10 mice) received 4.5-mg/kg of CCcompound1 once every day between days 12-24. The results, shown in TABLE 8, indicate that between days 12 and 24 after tumor implantation, the prostate tumor caused about 6.9-g loss in lean body weight (4.1-g loss in total body weight). In contrast, animals treated with CCcompound1 actually gained 6.3-g lean body weight.

[3] = test system: ob/ob mice; assay: Blood glucose in ob/ob mice, CCcompound1 combined with human proteins AGP and TF; type: in vivo
Experimental: For each experimental group, ob/ob mice were chosen (5 mice in each group) that were 43 days old and weighed on average 40.3±1.9-g on the first day of experiment. Three groups of mice were treated with s.c. injection of 4.5-mg/kg CCcompound1 once every day for 17 days. Mice in one of these CCcompound1-treated groups received no other treatment, and their blood was drawn for glucose analysis on day 14 and 17 exactly 45 min after treatment. The second CCcompound1-treated group also received 0.5-mg/mouse (˜11 mg/kg) dose of greater than 98% pure commercial human transferrin [catalogue number, T 3309 according to 2004/2005 Sigma catalogue]. In this second group the blood was drawn on day 14 just prior to TF administration and on day 17 two hours after TF and 45 min after CCcompound1 administration. An additional group of animals received only TF treatment. The third CCcompound1-treated group also received 1.2-mg/mouse (26.6-mg/kg) dose of >99% pure human AGP [catalogue number G 9885 according to 2004/2005 Sigma catalogue]; in this group the blood was drawn on day 14 just prior to AGP administration and on day 17 two hours and 45 minutes after administration of AGP and CCcompound1, respectively. An additional group of animals received only AGP treatment, and yet another group of animals received no treatment at all. On day 1, prior to any treatment, the blood glucose level of all animals was in the range of 7.2-7.9 mM.

[4] = test system: C57/BL/6 mice; assay: Glucose tolerance test with normal mice, dose and time dependence of CCcompound1; type: in vivo
Experimental: Female C57/BL/6 mice weighing 22-23-g and fasted for 14 hours prior to i.p. glucose administration (3-g/kg) were used. None of the animals received any food during the experiment other than glucose. The animals received i.p. injections of 2.0 or 4.5-mg/kg of CCcompound1 either 30 min, 60 min or 120 min prior to glucose administration. Blood samples were taken and glucose concentrations were immediately measured as described earlier. Each group included six animals. The data are the mean±std. dev. of 6 determinations, i.e. one determination with each of the six animals. “-min” indicates the length of period in minutes elapsed between the administration of CCcompound1 (first) and glucose (second).

[5] = 4.5 mg/kg group, day 12 (start of treatment)
[6] = 4.5 mg/kg once daily days 12-24, day 24

Q: For Cc1c(OCC(O)C[N+](C)(C)C)cc2c(=O)c3ccccc3sc2c1C.[Cl-] (stereo not shown) [CCcompound 1, [3-(3,4-Dimethyl-9-oxo-9H-thioxanthen-2-yloxy)-2-hydroxypropyl]trimethyl-ammonium chloride], which Glucose level ([1]; 45 min after treatment, day 1) is on record?
A: 6.2 ± 0.4 mM

Q: And the Glucose level ([1]; 45 min after treatment, day 4)?
A: 7.4 ± 0.3 mM

Q: What about the Glucose level ([1]; 45 min after treatment, day 7) of the same compound?
A: 8.4 ± 0.2 mM

Q: And the Glucose level ([1]; 45 min after treatment, day 11)?
A: 9.2 ± 0.3 mM

Q: And the Glucose level ([1]; 45 min after treatment, day 14)?
A: 10.2 ± 0.3 mM

Q: What about the Glucose level ([1]; 6 hours after treatment, day 4) of the same compound?
A: 11.3 ± 0.7 mM

Q: And the Glucose level ([1]; 6 hours after treatment, day 7)?
A: 13.8 ± 0.4 mM

Q: And the Glucose level ([1]; 6 hours after treatment, day 11)?
A: 15.7 ± 0.4 mM

Q: What about the Glucose level ([1]; 6 hours after treatment, day 14) of the same compound?
A: 17.5 ± 0.4 mM

Q: What about the Glucose level ([1]; blood 6 hours after treatment, day 1) of the same compound?
A: 9.3 ± 0.4 mM

Q: And the “Body weight (lean)” value [2, 5]?
A: 25.0 g

Q: What about the Tumor weight [2, 5] of the same compound?
A: 0.2 ± 0.1 g

Q: And the Total weight ([2]; 4.5 mg/kg group, day 12 after tumor transplantation (start of treatment))?
A: 25.2 ± 1.3 g

Q: And the “Body weight (lean)” value [2, 6]?
A: 30.3 g

Q: And the Total weight [2, 6]?
A: 31.9 ± 2.5 g

Q: What about the Tumor weight [2, 6] of the same compound?
A: 1.6 ± 0.4 g

Q: What about the “Gain in lean body weight” value ([2]; 4.5 mg/kg, between days 12 and 24) of the same compound?
A: 6.3 g

Q: And the “Reduction of tumor volume” value ([2]; 4.5 mg/kg, days 12-24)?
A: ~50%

Q: What about the Blood glucose level ([3]; 14th day, CC1 4.5-mg/kg s.c. daily, 45 min after treatment, blood drawn just prior to AGP or TF administration) of the same compound?
A: 10.9 ± 0.9 mM

Q: What about the Blood glucose level ([3]; 17th day, 45 min after CC1 4.5-mg/kg s.c., two hours after TF 0.5-mg/mouse or AGP 1.2-mg/mouse) of the same compound?
A: 11.4 ± 0.4 mM

Q: And the Blood glucose ([4]; 2 mg/kg i.p. −30 min, 0 min)?
A: 1.30 ± 0.20 mM

Q: What about the Blood glucose ([4]; 2 mg/kg i.p. −30 min, 30 min) of the same compound?
A: 5.40 ± 0.45 mM

Q: And the Blood glucose ([4]; 2 mg/kg i.p. −30 min, 60 min)?
A: 4.15 ± 0.45 mM

Q: And the Blood glucose ([4]; 2 mg/kg i.p. −30 min, 120 min)?
A: 3.50 ± 0.30 mM

Q: And the Blood glucose ([4]; 2 mg/kg i.p. −30 min, 180 min)?
A: 2.80 ± 0.30 mM

Q: What about the Blood glucose ([4]; 2 mg/kg i.p. −60 min, 0 min) of the same compound?
A: 1.30 ± 0.30 mM

Q: And the Blood glucose ([4]; 2 mg/kg i.p. −60 min, 30 min)?
A: 5.70 ± 0.35 mM

Q: And the Blood glucose ([4]; 2 mg/kg i.p. −60 min, 60 min)?
A: 4.30 ± 0.30 mM

Q: And the Blood glucose ([4]; 2 mg/kg i.p. −60 min, 120 min)?
A: 3.70 ± 0.30 mM

Q: What about the Blood glucose ([4]; 2 mg/kg i.p. −60 min, 180 min) of the same compound?
A: 3.25 ± 0.35 mM

Q: What about the Blood glucose ([4]; 4.5 mg/kg i.p. −30 min, 0 min) of the same compound?
A: 1.50 ± 0.25 mM

Q: What about the Blood glucose ([4]; 4.5 mg/kg i.p. −30 min, 30 min) of the same compound?
A: 5.05 ± 0.20 mM

Q: And the Blood glucose ([4]; 4.5 mg/kg i.p. −30 min, 60 min)?
A: 3.55 ± 0.25 mM

Q: And the Blood glucose ([4]; 4.5 mg/kg i.p. −30 min, 120 min)?
A: 2.95 ± 0.25 mM

Q: What about the Blood glucose ([4]; 4.5 mg/kg i.p. −30 min, 180 min) of the same compound?
A: 1.95 ± 0.30 mM

Q: And the Blood glucose ([4]; 4.5 mg/kg i.p. −60 min, 0 min)?
A: 1.40 ± 0.25 mM

Q: And the Blood glucose ([4]; 4.5 mg/kg i.p. −60 min, 30 min)?
A: 5.25 ± 0.30 mM

Q: What about the Blood glucose ([4]; 4.5 mg/kg i.p. −60 min, 60 min) of the same compound?
A: 3.90 ± 0.20 mM

Q: And the Blood glucose ([4]; 4.5 mg/kg i.p. −60 min, 120 min)?
A: 3.20 ± 0.15 mM

Q: What about the Blood glucose ([4]; 4.5 mg/kg i.p. −60 min, 180 min) of the same compound?
A: 2.85 ± 0.15 mM

Q: What about the Blood glucose ([4]; 4.5 mg/kg i.p. −120 min, 0 min) of the same compound?
A: 1.35 ± 0.15 mM

Q: What about the Blood glucose ([4]; 4.5 mg/kg i.p. −120 min, 30 min) of the same compound?
A: 7.80 ± 0.40 mM

Q: What about the Blood glucose ([4]; 4.5 mg/kg i.p. −120 min, 60 min) of the same compound?
A: 5.90 ± 0.45 mM

Q: What about the Blood glucose ([4]; 4.5 mg/kg i.p. −120 min, 120 min) of the same compound?
A: 4.30 ± 0.40 mM

Q: And the Blood glucose ([4]; 4.5 mg/kg i.p. −120 min, 180 min)?
A: 3.00 ± 0.20 mM

Q: What about the Glucose lowering effect ([4]; administered 120 min prior to glucose) of the same compound?
A: practically ineffective

Source: US20090317372A1, “SMALL MOLECULES FOR THE REDUCTION OF HIGH BLOOD GLUCOSE LEVEL” (priority 2008, published 2009)
